The source of these data is patent publication US11130769B2 (Prelude Therapeutics Incorporated, priority 2018, dated 2021).

Like-named read-outs stand apart in the source and are kept apart here.

One assay deals with MCL-1 (Homo sapiens (Human), UniProt Q07820). Kind of assay: Cell free Mcl-1:Bim affinity assay (fluorescence polarization competition). Particulars: 15 nM MCL-1, 5 nM FITC-Bim, 1 hour at room temperature, read-out: BIM_Ki. Format: binding. In outline: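 Compounds competed with FITC-labelled Bim peptide (5 nM) for MCL-1 (15 nM) in HEPES/NaCl buffer with 1% DMSO, 1 h at room temperature. Fluorescence polarization (535 nm emission) gave % inhibition versus DMSO and positive controls; IC50 from 10-point curves, converted to Ki by the Nikolovska-Coleska equation.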
On the technique in general: Polarisation of emitted light reports the rotation of a fluorescent probe.

For the next assay, the system named is H929 cells. Nature of the assay: Cell viability assay (H929 10 FBS). Format: cell-based. Particulars: Homo sapiens, NCI-H929, 24 hours, read-out: H929_10FBS IC50. In outline:
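H929 cells, 4000/well, in RPMI 1640 with 10% FBS, sodium pyruvate, HEPES and glucose were exposed to compound 24 h at 37 °C. Viability read as luminescence after 30-60 min at RT with CellTiter-Glo or ATPlite 1 Step.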

Chain of MCL-1 (Q07820 whole entry): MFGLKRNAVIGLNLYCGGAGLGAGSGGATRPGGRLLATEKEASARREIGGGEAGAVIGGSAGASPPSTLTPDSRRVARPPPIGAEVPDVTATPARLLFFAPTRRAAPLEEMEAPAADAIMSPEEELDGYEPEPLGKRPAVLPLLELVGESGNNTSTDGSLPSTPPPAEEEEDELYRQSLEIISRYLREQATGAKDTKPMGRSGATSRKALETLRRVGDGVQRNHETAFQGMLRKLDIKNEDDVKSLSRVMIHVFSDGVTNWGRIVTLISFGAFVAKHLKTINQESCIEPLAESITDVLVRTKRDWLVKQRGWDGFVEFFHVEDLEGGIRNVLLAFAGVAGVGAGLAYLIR

Broadly, the IC50 is the concentration that gives 50% inhibition. Consider `CN(C)CCNC(=O)O[C@H]1/C=C/COC(C)(C)C(=O)NS(=O)(=O)c2ccc3c(c2)N(C[C@@H]2CC[C@H]21)C[C@@]1(CCCc2cc(Cl)ccc21)CO3` [Example 155, [(3R,6R,7S,8E,22S)-6′-Chloro-12,12-dimethyl-13,15,15-trioxo-spiro[11,20-dioxa-15-thia-1,14-diazatetracyclo[14.7.2.03,6.019,24]pentacosa-8,16,18,24-tetraene-22,1′-tetralin]-7-yl] N-[2-(dimethylamino)ethyl]carbamate], for which the Ki on MCL-1 (class symbols) is under 1 nM. The IC50 with H929 cells was under 500 nM.

For `CN1C(=O)OC[C@@H]2CC[C@H]2CN2C[C@@]3(CCCc4cc(Cl)ccc43)COc3ccc(cc32)S(=O)(=O)NC(=O)N2CC[C@@H]1C2` [Example 101, (3R,6R,11R,24S)-6′-Chloro-10-methyl-17,17-dioxo-spiro[8,22-dioxa-17-thia-1,10,14,16-tetrazapentacyclo[16.7.2.111,14.03,6.021,26]octacosa-18(27),19,21(26)-triene-24,1′-tetralin]-9,15-dione], the Ki on MCL-1 (class symbols) is under 1 nM. Also, the IC50 with H929 cells is over 1000 nM.

Regarding `CN(C)C(=O)CO[C@H]1/C=C/COC2(CC2)C(=O)NS(=O)(=O)c2ccc3c(c2)N(C[C@@H]2CC[C@H]21)C[C@@]1(CCCc2cc(Cl)ccc21)CO3` [Example 142, 2-[(3R,6R,7S,8E,22S)-6′-Chloro-12,12-ethylene-13,15,15-trioxo-spiro[11,20-dioxa-15-thia-1,14-diazatetracyclo[14.7.2.03,6.019,24]pentacosa-8,16,18,24-tetraene-22,1′-tetralin]-7-yl]oxy-N,N-dimethyl-acetamide], on MCL-1 (class symbols), the Ki is under 1 nM. Moreover, the IC50 in the assay with H929 cells was under 1000 nM.

Consider `CN(C)C(=O)O[C@H]1/C=C/COC(C)(C)C(=O)NS(=O)(=O)c2ccc3c(c2)N(C[C@@H]2CC[C@H]21)C[C@]1(CO3)OCCc2cc(Cl)ccc21` [Example 250, [(3R,6R,7S,8E,22R)-6′-Chloro-12,12-dimethyl-13,15,15-trioxo-spiro[11,20-dioxa-15-thia-1,14-diazatetracyclo[14.7.2.03,6.019,24]pentacosa-8,16,18,24-tetraene-22,1′-isochromane]-7-yl] N,N-dimethylcarbamate], for which the Ki at MCL-1 (class symbols) was under 1 nM. Further, in the assay on H929 cells, the IC50 was under 500 nM.

For the molecule `CN(C)CCO[C@H]1/C=C/COC(C)(C)C(=O)NS(=O)(=O)c2ccc3c(c2)N(C[C@@H]2CC[C@H]21)C[C@@]1(CCCc2cc(Cl)ccc21)CO3` [Example 65, (3R,6R,7S,8E,22S)-6′-Chloro-7-[2-(dimethylamino)ethoxy]-12,12-dimethyl-15,15-dioxo-spiro[11,20-dioxa-15-thia-1,14-diazatetracyclo[14.7.2.03,6.019,24]pentacosa-8,16,18,24-tetraene-22,1′-tetralin]-13-one], the Ki at MCL-1 (class symbols) is under 1 nM. Also, the IC50 in the assay with H929 cells was under 500 nM.

On to `O=C(N[C@H]1CCOC1)O[C@H]1/C=C/COC2(CCC2)C(=O)NS(=O)(=O)c2ccc3c(c2)N(C[C@@H]2CC[C@H]21)C[C@@]1(CCCc2cc(Cl)ccc21)CO3` [Example 237, [(3R,6R,7S,8E,22S)-6′-Chloro-12,12-(1,3-propylene)-13,15,15-trioxo-spiro[11,20-dioxa-15-thia-1,14-diazatetracyclo[14.7.2.03,6.019,24]pentacosa-8,16(25),17,19(24)-tetraene-22,1′-tetralin]-7-yl] N-[(3S)-tetrahydrofuran-3-yl]carbamate], for which the Ki at MCL-1 (class symbols) was under 1 nM. Besides, the IC50 with H929 cells was under 500 nM.

As to `CN(C)C(=O)O[C@H]1/C=C/COC2(CCC2)C(=O)NS(=O)(=O)c2ccc3c(c2)N(C[C@@H]2CC[C@H]21)C[C@@]1(CCCc2cc(Cl)ccc21)CO3` [Example 231, [(3R,6R,7S,8E,22S)-7′-Chloro-12,12-(1,3-propylene)-13,15,15-trioxo-spiro[11,20-dioxa-15λ6-thia-1,14-diazatetracyclo[14.7.2.03,6.019,24]pentacosa-8,16,18,24-tetraene-22,4′-chromane]-7-yl] N,N-dimethyl-1-carboxylate], the Ki at MCL-1 (class symbols) was under 1 nM. The IC50 in the assay with H929 cells was under 500 nM.

In the case of `CO[C@H]1/C=C/C[C@@H](C)CC(=O)NS(=O)(=O)c2ccc3c(c2)N(C[C@@H]2CC[C@H]21)C[C@@]1(CCCc2cc(Cl)ccc21)CO3` [Example 84, (3R,6R,7S,8E,11R,22S)-6′-Chloro-7-methoxy-11-methyl-15,15-dioxo-spiro[20-oxa-15-thia-1,14-diazatetracyclo[14.7.2.03,6.019,24]pentacosa-8,16(25),17,19(24)-tetraene-22,1′-tetralin]-13-one], the Ki on MCL-1 (class symbols) fell in the range of 1 to 100 nM. Further, in the assay on H929 cells, the IC50 was over 1000 nM.

On to `O=C1N[C@@H]2CCN(C2)C(=O)NS(=O)(=O)c2ccc3c(c2)N(C[C@@H]2CC[C@H]2CO1)C[C@@]1(CCCc2cc(Cl)ccc21)CO3` [Example 102, (3R,6R,11R,24S)-6′-Chloro-17,17-dioxo-spiro[8,22-dioxa-17-thia-1,10,14,16-tetrazapentacyclo[16.7.2.111,14.03,6.021,26]octacosa-18(27),19,21(26)-triene-24,1′-tetralin]-9,15-dione], for which, on MCL-1 (class symbols), the Ki lay in the range of 1 to 100 nM. The IC50 in the assay on H929 cells was over 1000 nM.

For the molecule `CO[C@@H]1/C=C\CN[C@@H](C)C(=O)NS(=O)(=O)c2ccc3c(c2)N(C[C@@H]2CC[C@H]21)C[C@@]1(CCCc2cc(Cl)ccc21)CO3` [Example 118, (3R,6R,7R,8Z,12S,22S)-6′-Chloro-7-methoxy-12-methyl-15,15-dioxo-spiro[20-oxa-15-thia-1,11,14-triazatetracyclo[14.7.2.03,6.019,24]pentacosa-8,16(25),17,19(24)-tetraene-22,1′-tetralin]-13-one], the Ki at MCL-1 (class symbols) fell in the range of 1 to 100 nM. The IC50 in the assay on H929 cells is over 1000 nM.

With `CC1(C)OC/C=C/[C@H](OC(=O)N2CCC2)[C@@H]2CC[C@H]2CN2C[C@@]3(CCCc4cc(Cl)ccc43)COc3ccc(cc32)S(=O)(=O)NC1=O` [Example 174, [(3R,6R,7S,8E,22S)-6′-Chloro-12,12-dimethyl-13,15,15-trioxo-spiro[11,20-dioxa-15-thia-1,14-diazatetracyclo[14.7.2.03,6.019,24]pentacosa-8,16,18,24-tetraene-22,1′-tetralin]-7-yl] azetidine-1-carboxylate], the Ki at MCL-1 (class symbols) was under 1 nM. Moreover, in the assay on H929 cells, the IC50 was under 500 nM.

Turning to `CNC(=O)O[C@H]1/C=C/COC(C)(C)C(=O)NS(=O)(=O)c2ccc3c(c2)N(C[C@@H]2CC[C@H]21)C[C@@]1(CCCc2cc(Cl)ccc21)CO3` [Example 50, [(3R,6R,7S,8E,22S)-6′-Chloro-12,12-dimethyl-13,15,15-trioxo-spiro[11,20-dioxa-15-thia-1,14-diazatetracyclo[14.7.2.03,6.019,24]pentacosa-8,16,18,24-tetraene-22,1′-tetralin]-7-yl] N-methylcarbamate], the Ki at MCL-1 (class symbols) is under 1 nM. Moreover, the IC50 with H929 cells is under 500 nM.

For the molecule `CCN1C/C=C/[C@H](OC(=O)N2CCN(CCOC)CC2)[C@@H]2CC[C@H]2CN2C[C@@]3(CCCc4cc(Cl)ccc43)COc3ccc(cc32)S(=O)(=O)NC(=O)C1(C)C` [Example 225, [(3R,6R,7S,8E,22S)-6′-Chloro-11-ethyl-12,12-dimethyl-13,15,15-trioxo-spiro[20-oxa-15-thia-1,11,14-triazatetracyclo[14.7.2.03,6.019,24]pentacosa-8,16,18,24-tetraene-22,1′-tetralin]-7-yl] 4-(2-methoxyethyl)piperazine-1-carboxylate], the Ki on MCL-1 (class symbols) lay in the range of 1 to 100 nM. The IC50 in the assay with H929 cells is under 500 nM.

For the molecule `CN(C(=O)O[C@H]1/C=C/CN(C)C2(CCC2)C(=O)NS(=O)(=O)c2ccc3c(c2)N(C[C@@H]2CC[C@H]21)C[C@@]1(CCCc2cc(Cl)ccc21)CO3)C1CCOCC1` [Example 239, [(3R,6R,7S,8E,22S)-6′-Chloro-11-methyl-12,12-(1,3-propylene)-13,15,15-trioxo-spiro[20-oxa-15-thia-1,11,14-triazatetracyclo[14.7.2.03,6.019,24]pentacosa-8,16,18,24-tetraene-22,1′-tetralin]-7-yl] N-methyl-N-tetrahydropyran-4-yl-carbamate], on MCL-1 (class symbols), the Ki is under 1 nM. In addition, in the assay on H929 cells, the IC50 was under 500 nM.

`CC(=O)NS(=O)(=O)c1ccc2c(c1)N(CC1CC1)CC1(CCCc3cc(Cl)ccc31)CO2` (stereo not shown) [Example 2, N-[6′-Chloro-5-(cyclopropylmethyl)spiro[2,4-dihydro-1,5-benzoxazepine-3,1′-tetralin]-7-yl]sulfonylacetamide]: the Ki at MCL-1 (numeric values) stood at 179 nM. Moreover, the IC50 in the assay on H929 cells is over 1000 nM.

As to `CN(C)C(=O)N(C)[C@H]1/C=C/COC(C)(C)C(=O)NS(=O)(=O)c2ccc3c(c2)N(C[C@@H]2CC[C@H]21)C[C@@]1(CCCc2cc(Cl)ccc21)CO3` [Example 257, 1,1,3-Trimethyl-3-[(3R,6R,7S,8E,22S)-6′-chloro-12,12-dimethyl-13,15,15-trioxo-spiro[11,20-dioxa-15-thia-1,14-diazatetracyclo[14.7.2.03,6.019,24]pentacosa-8,16(25),17,19(24)-tetraene-22,1′-tetralin]-7-yl]urea], the Ki on MCL-1 (class symbols) was in the range of 1 to 100 nM. Moreover, the IC50 with H929 cells is over 1000 nM.

Consider `CN(C)CCN(C)C(=O)O[C@H]1/C=C/COC(C)(C)C(=O)NS(=O)(=O)c2ccc3c(c2)N(C[C@@H]2CC[C@H]21)C[C@@]1(CCCc2cc(Cl)ccc21)CO3` [Example 55, [(3R,6R,7S,8E,22S)-6′-Chloro-12,12-dimethyl-13,15,15-trioxo-spiro[11,20-dioxa-15-thia-1,14-diazatetracyclo[14.7.2.0˜3,6.0˜19,24]pentacosa-8,16,18,24-tetraene-22,1′-tetralin]-7-yl] N-[2-(dimethylamino)ethyl]-N-methyl-carbamate], for which the Ki at MCL-1 (class symbols) is under 1 nM. For the same molecule, the IC50 in the assay with H929 cells is under 500 nM.
